Test results: patent US8022235B2, “Compositions of phospholipid ether boronic acids and esters and methods for their synthesis and use” (Cellectar, Inc., priority 2007, dated 2011)

Legend:
Adrenal RL-251 = assay: Imaging and tissue distribution, tumor model; assay type: in vivo, SCID Mouse
Lung NCI H-69 (Oat Cell) = assay: Imaging and tissue distribution, tumor model; assay type: in vivo, Nude Mouse; conditions: Adenocarcinoma
Mammary Hyperplasia = assay: Imaging and tissue distribution, tumor model; assay type: in vivo, Endogenous Mouse; conditions: Alveolar Hyperplasia
Adenomatous Polyp = assay: Imaging and tissue distribution, tumor model; assay type: in vivo, Spontaneous Mouse; conditions: Adenoma
Melanoma = assay: Imaging and tissue distribution, tumor model; assay type: in vivo, Mouse xenograft; conditions: Adenocarcinoma
Text: (§1) Imaging and tissue distribution studies performed in mouse models aimed at determining the uptake characteristics in a wide variety of tumor models are summarized in Table 1, below.

albumin fraction = molecular target: T1, albumin fraction (Rattus norvegicus, UniProt P02770); assay: PAGE analysis of plasma radioactivity distribution after iodine-125 labeled 1; assay type: in vivo, Walker-256 tumor-bearing rats; conditions: plasma 7 days after administration
T1 construct: plasma was isolated from Walker-256 tumor-bearing rats; from tissue; host or cells: plasma of Walker-256 tumor-bearing rats
Text: In order to examine the transport properties of PLE analogs, plasma was isolated from Walker-256 tumor-bearing rats 7 days after administration of iodine-125 labeled 1. The distribution of radioactivity in the plasma compartment of a rat receiving 1 (NM404) was studied.

[1] = tested on: non-small cell lung cancer (NSCLC); assay: Initial human pharmacokinetic evaluation, planar gamma-camera scintigraphy; assay type: in vivo; conditions: relative to NM324
Text: FIG. 6A-C images of lung cancer patient, posterior whole body planar nuclear medicine image (A) 4 days after iv administration of ^131I-NM404 (0.8 mCi) to a patient with non small cell lung cancer (6 cm dia., arrow). Lung tumor is easily detected in corresponding axial (B) and coronal (C) computed tomography (CT) scans;
In preparation for human clinical trials, unlabeled NM404 was subjected to independent (University of Buffalo Toxicology Research Center) acute toxicity evaluation at 1200 times the anticipated imaging mass dose in rats and rabbits. […] Due to its selective tumor uptake and retention properties in a variety of rodent tumor models and subsequent excellent safety profile in rats and rabbits, NM404 was selected to undergo initial human pharmacokinetic evaluation in non-small cell lung cancer (NSCLC) patients. Patients underwent planar gamma-camera scintigraphy after receiving an injection of ^131I-NM404 (<1 mCi).

[2] = tested on: Walker-256 carcinosarcoma; assay: Tissue distribution of radioactivity in Walker-256 carcinosarcoma model; assay type: in vivo, rats
Procedure: The avidity of PLE and APC analogs to localize in tumors was evaluated in several animal models. The PC-3 model represents a human tumor cell line that was used to determine the target (tumor) to non-target ratio of NM404 and NM412 in head to head comparison in order to select a candidate for an initial human pharmacokinetic trial in prostate cancer patients. The MatLyLu (Dunning R3327 rat) model, a rat prostate tumor line, was used specifically to screen 9 specific analogs prior to entering them into control for dosimetry and tumor-bearing animals for determining tumor/background ratios. Finally, the Walker-256 carcinosarcoma model was used for quantitative tissue distribution purposes.
In order to expedite the screening process and minimize the number of tumor bearing animals utilized in multiple time point tissue distribution studies, new radioiodinated homologs were imaged by gamma camera scintigraphy in the rat Dunning […] (MAT LyLu strain) prostate cancer model. Thus, male Copenhagen rats received a subcutaneous injection of MAT LyLu cells (1×10^6 cells) in the thigh 10-14 days prior to injection of the radioiodinated PLE analogs (30-40 μCi) in 2% Tween-20 solution. Gamma camera images were obtained at multiple time points including 24 and 48 hours post injection. […] Tissue distribution of radioactivity in rats bearing Walker-256 carcinosarcoma was assessed at various time intervals following intravenous administration of the radioiodinated chain length homologs. The first group of compounds that was tested included three alkylphosphocholines: a shorter chain analog with seven carbons NM396 and two analogs with a longer chain length, 13 (NM397, C15 alkyl chain length) and 1 (NM404, C18 alkyl chain length).

[3] = Human safety studies of unlabeled NM404; assay type: in vivo; conditions: normal male humans, mass of 10 times the anticipated imaging dose
Procedure: Formal toxicology studies of NM404 in male rats and rabbits were performed at the Toxicology Research Center of the State University of New York at Buffalo under the direction of Dr. Paul Kostyniak. Drug vehicle and drug product were provided to Dr. Kostyniak by Dr. Raymond Counsell of the University of Michigan for testing as described in the appended synopses of Study 27 and Study 28. […] Human safety studies of unlabeled NM404 were initiated in normal male humans at a mass of 10 times the anticipated imaging dose and about 21 times the anticipated therapy dose. […] This toxicology study was performed under GLP conditions.

Glioma L9 = assay: Imaging and tissue distribution, tumor model; assay type: in vivo, Rat
Text: as §1

Mammary SCC and ACC = assay: Imaging and tissue distribution, tumor model; therapeutic responses at imaging doses; assay type: in vivo, Apc^Min/+mouse; conditions: Squamous cell carcinoma and Adenocarcinoma
Text: During the course of mouse tumor uptake and retention studies with “imaging” doses (15-20 μCi/20 g mouse) of ^125I-labeled NM404, several apparent therapeutic responses have been observed (unpublished results). […] Some of these animals also lost all hair above larger mammary tumors at around 8 days after injection. Moreover, these mice also get intestinal tumors and usually suffer from intestinal bleeding resulting in severe anemia, which renders their feet white. […] Another compelling example of tumor regression is illustrated in FIG. 13. Two litter mates each received SCC1 and SCC6 xenografts in their left and right flanks, respectively. One mouse received a single injection of ^125I-NM404 (20 μCi). […] These coincidental findings were reconfirmed in two separate age-matched groups each involving more than 6 mice.

Retinoblastoma = assay: Imaging and tissue distribution, tumor model; assay type: in vivo, Spontaneous Mouse; conditions: Blastoma
animal tumor models = assay: Imaging and biodistribution across animal tumor models (general statements)
Text: See, for example, U.S. patent application Ser. Nos. 10/906,687, 11/177,740, 11/316,620 and 11/382,645. Due to deficiencies in metabolic phospholipase enzymes in the membranes of malignant tumor cells, the prevailing hypothesis for this specificity is that phospholipid ether analogs become trapped exclusively in tumor cell membranes because of their inability to become metabolized and eliminated by the cancerous cell. Thus, the differential clearance rates of phospholipid ethers from normal cells versus neoplastic tumor cells are responsible for this specificity.
The reason for the retention of PLE and analogs in cancer cells remains unknown. Without being held to any particular theory, however, the prevailing hypothesis, is that radioiodinated PLE and APC analogs become trapped in tumor cell membranes because of their inability to be metabolized and eliminated. On the other hand, such lipid molecules are metabolized and cleared by normal tissues, including the liver.
These PLE analogs are specifically designed to incorporate aromatic radioiodine in order to render the molecule stable towards in vivo deiodination.

T1 sequence (P02770 25-608): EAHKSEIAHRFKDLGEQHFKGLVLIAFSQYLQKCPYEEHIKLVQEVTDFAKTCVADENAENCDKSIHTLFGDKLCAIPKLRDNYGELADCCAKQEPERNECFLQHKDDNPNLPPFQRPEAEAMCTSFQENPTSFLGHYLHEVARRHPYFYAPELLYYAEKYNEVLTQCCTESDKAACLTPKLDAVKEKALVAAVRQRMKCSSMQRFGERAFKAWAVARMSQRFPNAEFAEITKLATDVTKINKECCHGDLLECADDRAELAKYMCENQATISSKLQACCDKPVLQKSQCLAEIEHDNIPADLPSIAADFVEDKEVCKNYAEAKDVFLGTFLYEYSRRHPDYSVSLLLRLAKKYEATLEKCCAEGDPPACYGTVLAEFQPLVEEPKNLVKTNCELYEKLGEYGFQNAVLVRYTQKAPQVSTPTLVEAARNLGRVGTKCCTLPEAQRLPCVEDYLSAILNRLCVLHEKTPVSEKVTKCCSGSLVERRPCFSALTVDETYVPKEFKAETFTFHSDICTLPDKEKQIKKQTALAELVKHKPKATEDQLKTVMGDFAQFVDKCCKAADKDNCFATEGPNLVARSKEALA

With `C[N+](C)(C)CCOP(=O)([O-])OCCCCCCCCCCCCCCCCCCc1ccc(I)cc1` [NM404, 18-(p-iodophenyl)-octadecyl phosphocholine] the Uptake (Adrenal RL-251; Adenocarcinoma) was “Yes”, the tumor retention (Adrenal RL-251; human adrenal tumor xenograft, FIG. 7) was “Prolonged tumor retention” and the Uptake (Lung NCI H-69 (Oat Cell)) was “Yes”. The Uptake (Mammary Hyperplasia) was “No”, the Uptake (Adenomatous Polyp) was “No” and the Uptake (Melanoma) was “Yes”. The “circulating radioactivity associated with the albumin fraction” value (albumin fraction) was 88%, the “liver and abdominal radioactivity levels” value [1] was “much lower” and the “peak radioactivity in the tumor” value ([2]; 48 hours after administration) was 1.14±0.01 % of ID/g. For the same compound, the blood levels ([2]; 120 hours) was 0.6±0.1 % of ID/g, the Uptake ([2]; Carcinosarcoma) was “Yes” and the “time of peak radioactivity in the tumor” value ([2]; after intravenous administration) was 48 h. For the same compound, the “total radioactivity levels in the thyroid” value ([2]; considering the small mass of the gland) was “relatively low”, the “radioactivity in liver, kidney and duodenum compared with C15 analog 13” value ([2]; rat, in vivo) was “significantly lower” and the toxicity [3] was “no toxicity attributable to the drug substance”. The Uptake (Glioma L9) was “Yes”, the Uptake (Mammary SCC and ACC) was “Yes” and the Uptake (Retinoblastoma) was “Yes”. For the same compound, the “tumor concentrations over time” value (animal tumor models; following administration) was “almost stable for many weeks”, the “elimination from normal tissue” value (animal tumor models; in vivo) was “eliminated from normal tissue within a few days” and the tumor retention (animal tumor models; over 27 animal tumor models, every model and tumor type studied) was “tumor-selective retention”. For the same compound, the tumor selectivity (animal tumor models; radioiodinated, 37 of 37 models investigated) was “remarkable tumor selectivity” and the “uptake into the tumor tissue” value (animal tumor models; up to) was 10-25 % of the injected dose.
